# Experimental data reported in US20250326744A1, “PIPERAZINE DERIVATIVE OR SALT THEREOF, AND PHARMACEUTICAL COMPOSITION” (priority 2022, published 2025).
# Where a name gives a salt, the structure may show the parent alone.
# Experiments:
# [1] = system: mexB (EC) strain; assay: Efflux ability inhibition effect on drug efflux pump MexB (Test Examples 1 and 3): proliferation (OD595) of mexB (EC) strain with EM or LVFX at 1/4 MIC, EC75; assay type: cell-based, Escherichia coli; details: for EC75, mexB (EC) strain, LVFX: combined with LVFX at 1/4 MIC; for EC75, mexB (EC) strain, EM: combined with EM at 1/4 MIC
# Description: The efflux ability inhibition effect of the test compound on the drug efflux pump was evaluated using the bacterial proliferative ability in the presence of EM or LVFX as an index.
# EM is a macrolide antibacterial agent and is a drug that is discharged outside the bacteria by MexB and MexY LVFX is a quinolone antibacterial agent and is a drug that is discharged outside the bacteria by MexB and MexY In a case where the test compound has an efflux ability inhibitory ability against the drug efflux pump, the proliferation of bacteria is suppressed by the combined use of EM or LVFX and the test compound, as compared with the case where EM or LVFX is used alone.
# A mutant strain (hereinafter, referred to as an “mexB (EC) strain”) obtained by transferring the genes of the main multidrug efflux system MexAB-OprM of Pseudomonas aeruginosa described in Nature, 2013, Vol. 500, pp. 102 to 106 as a plasmid into Escherichia coli strains in which the acrB and tolC genes of the multidrug efflux system AcrAB-TolC were deleted as described in Journal of Infection and Chemotherapy 2008, Vol. 14, pp. 23 to 29, and a gene transfer strain (hereinafter, referred to as an “mexY (EC) strain”) of another main multidrug efflux system MexXY-OprM of Pseudomonas aeruginosa were used for the evaluation of test compounds.
# In the mexB (EC) strain, an expression level of MexB of the drug efflux pump is accelerated, and in the mexY (EC) strain, an expression level of MexY of the drug efflux pump is accelerated.
# For culturing each Escherichia coli strain, a 96-well plate (amount of culture medium per well: 100 μL) was used and Luria-Bertani broth (LB) culture medium was used. The inoculation amount of the bacteria was set to 10^4 to 5 CFU/well.
# The mexB (EC) strain and the mexY (EC) strain were cultured for 16 to 20 hours in a culture medium to which EM or LVFX and test compounds at various concentrations (0 to 800 μM) were added, and the proliferation of the bacterial strains was evaluated by optical turbidity at 595 nm (OD595). The concentration of the antibacterial agents (EM and LVFX) in the culture medium were each set to ¼ of the minimum inhibitory concentration (MIC) (hereinafter, referred to as ¼ MIC) of the single antibacterial agent.
# The proliferation of bacteria in a case where the antibacterial agent was added at the concentration of ¼ MIC in a case where the test compound was not added was measured, and compared with the proliferation of bacteria in a case where the test compound was contained, and the lowest concentration of the test compound at which the proliferation was inhibited by 75% or more was defined as the drug efflux pump inhibitory ability of the test compound as 75% inhibitory effect concentration (EC75).
# The drug efflux pump inhibitory ability of each test compound in a case of being used in combination with the antibacterial agent against the mexB (EC) strain and the mexY (EC) strain was evaluated as follows according to the value of EC75. • S: EC75≤[…] • A: 12.5 μM<EC75≤25 μM • B: 25 μM<EC75≤100 μM • C: […]
# In the same manner as in Test Example 1, the efflux ability inhibition effect of the test compound on the drug efflux pump was evaluated using the bacterial proliferation ability in the presence of EM or LVFX as an index.
# [2] = system: mexY (EC) strain; assay: Efflux ability inhibition effect on drug efflux pump MexY (Test Examples 1 and 3): proliferation (OD595) of mexY (EC) strain with EM or LVFX at 1/4 MIC, EC75; assay type: cell-based, Escherichia coli; details: Table 51, Test Example 1, 16 to 20 hours culture, OD595; for EC75, mexY (EC) strain, EM: combined with EM at 1/4 MIC; for EC75, mexY (EC) strain, LVFX: combined with LVFX at 1/4 MIC
# Procedure, shortened: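 E. coli ΔacrB/ΔtolC strains carrying P. aeruginosa MexAB-OprM or MexXY-OprM were grown in LB for 16 to 20 hours with EM or LVFX at ¼ MIC plus compound (0 to 800 μM). Growth was read as OD595. EC75 is the lowest compound concentration giving ≥75% growth inhibition versus antibiotic alone.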
# [3] = system: mexB (PA) strain; assay: Combinational effect with antibacterial agent against Pseudomonas aeruginosa (Test Examples 2 and 4): mexB (PA) strain with LVFX, TC or AZT at 1/4 MIC, EC99; assay type: cell-based; details: mexB (PA) strain, Test Example 4; for EC99, combinational effect with AZT, mexB (PA): combined with AZT at 1/4 MIC; for EC99, combinational effect with LVFX, mexB (PA): combined with LVFX at 1/4 MIC; for EC99, combinational effect with TC, mexB (PA): combined with TC at 1/4 MIC
# Procedure, shortened: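 P. aeruginosa mexB (PA) strain, lacking MexCD-OprJ, MexEF-OprN and MexXY and overexpressing MexAB-OprM, grown 16–20 h in CAMHB (10^4–5 CFU/well) with LVFX, TC or AZT at ¼ MIC plus test compound at 0–800 μM. Growth read as OD595; EC99 is the lowest compound concentration giving ≥99% growth inhibition.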
# [4] = system: S-3769 strain; assay: Combinational effect with antibacterial agent against Pseudomonas aeruginosa (Test Examples 2 and 4): S-3769 strain with AMK or GM at 1/4 MIC, EC99; assay type: cell-based; details: S-3769 strain, Test Example 4; for EC99, combinational effect with AMK, S-3769 strain: combined with AMK at 1/4 MIC; for EC99, combinational effect with GM, S-3769 strain: combined with GM at 1/4 MIC
# Procedure, shortened: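 P. aeruginosa S-3769 (clinical isolate, MexY overexpressed) grown 16–20 h in CAMHB, 10^4 to 5 CFU/well, with AMK or GM at ¼ MIC plus test compound 0–800 μM. Growth read as OD595; EC99 is the lowest compound concentration giving ≥99% growth inhibition.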
# [5] = Table 51, Test Example 1, 16 to 20 hours culture, OD595
# [6] = Table 53, Test Example 3, same manner as Test Example 1
smiles,measurement,setting,value
"COc1ccccc1CN1CCN(C(=O)[C@H](N)C2CCN(CCc3ccsc3)CC2)CC1 [Example 133, hydrochloride of (R)-2-amino-1-(4-(2-methoxybenzyl)piperazin-1-yl)-2-(1-(2-(thiophen-3-yl)ethyl)piperidin-4-yl)ethan-1-one]","EC75, mexB (EC) strain, LVFX",[1]; [5],A (12.5 μM<EC75≤25 μM)
same,"EC75, mexY (EC) strain, EM",[2],B (25 μM<EC75≤100 μM)
same,"EC75, mexY (EC) strain, LVFX",[2],B (25 μM<EC75≤100 μM)
"N[C@@H](C(=O)N1CCN(Cc2cscn2)CC1)C1CCN(CCc2cc(Cl)ccc2-c2ccccc2)CC1 [Example 13, Hydrobromide of (R)-2-amino-2-(1-(2-(4-chloro-[1,1′-biphenyl]-2-yl)ethyl)piperidin-4-yl)-1-(4-(thiazol-4-ylmethyl)piperazin-1-yl)ethan-1-one]","EC75, mexB (EC) strain, EM",[1]; [5],B (25 μM<EC75≤100 μM)
same,"EC75, mexB (EC) strain, LVFX",[1]; [5],B (25 μM<EC75≤100 μM)
same,"EC75, mexY (EC) strain, EM",[2],B (25 μM<EC75≤100 μM)
same,"EC75, mexY (EC) strain, LVFX",[2],B (25 μM<EC75≤100 μM)
"COc1ccccc1CN1CCN(C(=O)[C@H](N)C2CCN(CC(CN)c3ccccc3)CC2)CC1 (stereo partly drawn) [Example 136, hydrochloride of (2R)-2-amino-2-(1-(3-amino-2-phenylpropyl)piperidin-4-yl)-1-(4-(2-methoxybenzyl)piperazin-1-yl)ethan-1-one]","EC75, mexB (EC) strain, EM",[1]; [5],B (25 μM<EC75≤100 μM)
same,"EC75, mexY (EC) strain, EM",[2],B (25 μM<EC75≤100 μM)
same,"EC75, mexY (EC) strain, LVFX",[2],B (25 μM<EC75≤100 μM)
"COCCOc1cccc(F)c1CN1CCN(C(=O)[C@H](N)C2CCN(CCc3ccccc3)CC2)CC1 [Example 116, Hydrochloride of (R)-2-amino-1-(4-(2-fluoro-6-(2-methoxyethoxy)benzyl)piperazin-1-yl)-2-(1-phenethylpiperidin-4-yl)ethan-1-one]","EC75, mexB (EC) strain, EM",[1]; [5],A (12.5 μM<EC75≤25 μM)
same,"EC75, mexB (EC) strain, LVFX",[1]; [5],A (12.5 μM<EC75≤25 μM)
same,"EC75, mexY (EC) strain, EM",[2],B (25 μM<EC75≤100 μM)
same,"EC75, mexY (EC) strain, LVFX",[2],B (25 μM<EC75≤100 μM)
"COc1ccccc1CN1CCN(C(=O)CN2CCC(NCc3ccccc3)CC2)CC1 [Example 419, hydrochloride of 2-(4-(benzylamino)piperidin-1-yl)-1-(4-(2-methoxybenzyl)piperazin-1-yl)ethan-1-one]","EC75, mexB (EC) strain, LVFX",[1]; [5],A (12.5 μM<EC75≤25 μM)
same,"EC75, mexY (EC) strain, EM",[2],B (25 μM<EC75≤100 μM)
same,"EC75, mexY (EC) strain, LVFX",[2],B (25 μM<EC75≤100 μM)
"C=C(Br)c1ccc(Cl)cc1CCN1CCC([C@@H](N)C(=O)N2CCN(Cc3c(F)cccc3OCC)CC2)CC1 [Example 545, Hydrobromide of (R)-2-amino-2-(1-(2-(1-bromovinyl)-5-chlorophenethyl)piperidin-4-yl)-1-(4-(2-ethoxy-6-fluorobenzyl)piperazin-1-yl)ethan-1-one]","EC75, mexB (EC) strain, LVFX",[1]; [6],A (12.5 μM<EC75≤25 μM)
same,"EC99, combinational effect with AZT, mexB (PA)",[3],B (25 μM<EC99≤100 μM)
same,"EC99, combinational effect with LVFX, mexB (PA)",[3],B (25 μM<EC99≤100 μM)
same,"EC99, combinational effect with TC, mexB (PA)",[3],B (25 μM<EC99≤100 μM)
same,"EC99, combinational effect with AMK, S-3769 strain",[4],S (EC99≤12.5 μM)
same,"EC99, combinational effect with GM, S-3769 strain",[4],S (EC99≤12.5 μM)
"Cn1ccnc1CN1CCN(C(=O)[C@H](N)C2CCN(CCc3cc(Cl)ccc3-c3ccccc3)CC2)CC1 [Example 525, Hydrobromide of (R)-2-amino-2-(1-(2-(4-chloro-[1,1-biphenyl]-2-yl)ethyl)piperidin-4-yl)-1-(4-((1-methyl-1H-imidazol-2-yl)methyl)piperazin-1-yl)ethan-1-one]","EC75, mexB (EC) strain, LVFX",[1]; [6],B (25 μM<EC75≤100 μM)
same,"EC99, combinational effect with AZT, mexB (PA)",[3],C (100 μM<EC99)
same,"EC99, combinational effect with LVFX, mexB (PA)",[3],C (100 μM<EC99)
same,"EC99, combinational effect with TC, mexB (PA)",[3],C (100 μM<EC99)
same,"EC99, combinational effect with AMK, S-3769 strain",[4],C (100 μM<EC99)
same,"EC99, combinational effect with GM, S-3769 strain",[4],C (100 μM<EC99)
"CCOc1cccc(F)c1CN1CCN(C(=O)[C@H](N)C2CCN(CCc3cc(Cl)ccc3-c3cn(C)nc3C)CC2)CC1 [Example 500, Hydrobromide of (R)-2-amino-2-(1-(5-chloro-2-(1,3-dimethyl-1H-pyrazol-4-yl)phenethyl)piperidin-4-yl)-1-(4-(2-ethoxy-6-fluorobenzyl)piperazin-1-yl)ethan-1-one]","EC75, mexB (EC) strain, EM",[1]; [6],A (12.5 μM<EC75≤25 μM)
same,"EC99, combinational effect with AZT, mexB (PA)",[3],C (100 μM<EC99)
same,"EC99, combinational effect with LVFX, mexB (PA)",[3],C (100 μM<EC99)
same,"EC99, combinational effect with TC, mexB (PA)",[3],C (100 μM<EC99)
same,"EC99, combinational effect with AMK, S-3769 strain",[4],A (12.5 μM<EC99≤25 μM)
same,"EC99, combinational effect with GM, S-3769 strain",[4],A (12.5 μM<EC99≤25 μM)
"N[C@@H](C(=O)N1CCN(Cc2ncc3ccccn23)CC1)C1CCN(CCc2cc(Cl)ccc2-c2ccccc2)CC1 [Example 518, Hydrobromide of (R)-2-amino-2-(1-(2-(4-chloro-[1,1-biphenyl]-2-yl)ethyl)piperidin-4-yl)-1-(4-(imidazo[1,5-a]pyridin-3-ylmethyl)piperazin-1-yl)ethan-1-one]","EC75, mexB (EC) strain, LVFX",[1]; [6],A (12.5 μM<EC75≤25 μM)
same,"EC99, combinational effect with AZT, mexB (PA)",[3],C (100 μM<EC99)
same,"EC99, combinational effect with LVFX, mexB (PA)",[3],C (100 μM<EC99)
same,"EC99, combinational effect with TC, mexB (PA)",[3],C (100 μM<EC99)
same,"EC99, combinational effect with AMK, S-3769 strain",[4],B (25 μM<EC99≤100 μM)
same,"EC99, combinational effect with GM, S-3769 strain",[4],B (25 μM<EC99≤100 μM)
"CCOc1cccc(F)c1CN1CCN(C(=O)[C@H](N)C2CCN(CCc3cc(Cl)ccc3C#Cc3ccccc3)CC2)CC1 [Example 546, Hydrobromide of (R)-2-amino-2-(1-(5-chloro-2-(phenylethynyl)phenethyl)piperidin-4-yl)-1-(4-(2-ethoxy-6-fluorobenzyl)piperazin-1-yl)ethan-1-one]","EC75, mexB (EC) strain, EM",[1]; [6],A (12.5 μM<EC75≤25 μM)
same,"EC75, mexB (EC) strain, LVFX",[1]; [6],A (12.5 μM<EC75≤25 μM)
same,"EC99, combinational effect with AZT, mexB (PA)",[3],C (100 μM<EC99)
same,"EC99, combinational effect with LVFX, mexB (PA)",[3],C (100 μM<EC99)
same,"EC99, combinational effect with TC, mexB (PA)",[3],A (12.5 μM<EC99≤25 μM)
same,"EC99, combinational effect with AMK, S-3769 strain",[4],S (EC99≤12.5 μM)
same,"EC99, combinational effect with GM, S-3769 strain",[4],S (EC99≤12.5 μM)
